Like-named read-outs stand apart in the source and are kept apart here.

The results in this text go back to US5728829A, “Process of preparing benzodiazepine compounds useful as antagonists of CCK or of gastrine” (Ferring-Research Limited, priority 1993, dated 1998).

One assay addresses T1, CCK-A receptor (Rattus norvegicus, UniProt P30551).
T1 construct: The pancreas of an SD rat was homogenized; from tissue; host or cells: SD rat pancreas membranes
T1 sequence (P30551 1-444): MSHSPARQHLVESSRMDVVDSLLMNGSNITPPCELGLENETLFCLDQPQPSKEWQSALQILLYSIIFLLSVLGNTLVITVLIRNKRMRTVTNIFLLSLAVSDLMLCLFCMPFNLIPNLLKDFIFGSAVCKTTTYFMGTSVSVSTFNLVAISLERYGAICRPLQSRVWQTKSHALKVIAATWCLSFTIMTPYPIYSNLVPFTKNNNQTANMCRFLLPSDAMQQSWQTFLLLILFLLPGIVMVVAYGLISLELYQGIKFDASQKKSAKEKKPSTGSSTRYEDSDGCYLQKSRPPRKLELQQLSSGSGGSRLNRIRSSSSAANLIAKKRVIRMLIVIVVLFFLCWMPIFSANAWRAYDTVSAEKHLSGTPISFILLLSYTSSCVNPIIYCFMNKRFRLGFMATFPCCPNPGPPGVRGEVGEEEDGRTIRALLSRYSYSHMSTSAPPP
The experiment in a line: Selectivity for the CCK-B receptor by comparison with binding to the CCK-A receptor in rats ([3H]L-364,718, pancreas membranes). On the set-up: species or system SD rat. The conditions noted are these: table 2; for A/B Ratio: IC50 (CCK-A)/IC50 (CCK-B): higher value = better CCK-B selectivity; for IC50: rat pancreas membranes, [3H]L-364,718, 37 °C, 30 min, read-out: Receptor binding affinity IC50, CCK-A. As for the experimental part: Determination of selectivity for the CCK-B receptor by comparison with binding to the CCK-A receptor in rats
The pancreas of an SD rat was homogenized in a 20-fold volume of 50 mM Tris-HCl buffer (pH 7.7) by the use of a Polytrone-type homogenizer, the homogenate was twice centrifuged for 10 minutes at 50000 G by the use of an ultra-centrifuge, the precipitate thus obtained was suspended in a 40-fold volume of 50 mM Tris-HCl buffer (containing 0.2% BSA, 5 mM MgCl2, 0.1 mg/ml bacitracin and 5 mM DTF; pH 7.7), and the suspension was stored at -80° C. until the membrane preparations were required.
The membrane preparations were then warmed to room temperature, diluted 1:10 with the buffer and incubated at 37° C. for 30 minutes in the presence of [^3 H]L-364,718 and the test compound then separated by suction filtration. Non-specific binding was determined in the presence of 1 μM L-364,718.
A high affinity for the CCK-A receptor in a CCK-B/gastrin antagonist is thought to be undesirable as it may lead to side-effects such as cholestasis and gall stone formation during therapy. Therefore it is preferable for the therapeutic agent to be selective for the CCK-B receptor. This selectivity is expressed by the ratio IC50 (CCK-A)/IC50 (CCK-B); the higher the value of this ratio the better is the selectivity.

The subject of assay [1] is pentagastrin-stimulated gastric acid secretion. Kind of assay: Measurement of inhibition of pentagastrin-stimulated gastric acid secretion in rat. The format is in vivo. The conditions noted are these: intravenous; for % Inhibition (maximum inhibition of gastric acid secretion): at 0.1 μmol/kg, mean for 3-5 animals; for ED50: read-out: ED50 (dose reducing secreted gastric acid to 50% of the maximum level), table 3, "Relative ED50 values", anaesthetised rat, pentagastrin 15 μg/Kg/hr. The source says:
Measurement of inhibition of pentagastrin-stimulated gastric acid secreation in rat
A cannula was inserted into the trachea of a rat anaesthetised with urethane (intraperitoneally administered, 1.25 g/Kg), its abdominal wall was incised to expose the gastric and duodenal portions, and a polyethylene cannula was set in the anterior stomach after ligation of the cardia. The duodenum was then subjected to slight section, a polyethylene cannnula was inserted from the incised portion toward the stomach, and the pylorus was ligated to fix the cannula.
Physiological saline (with pH adjusted to 7.0) was perfused from the anterior stomach toward the pylorus at a rate of 3 ml/min, and the gastric-acid secreation was measured by continuous titration of the perfusate by the use of a pH-stat (AUT-201; product of Toa Electronics, Ltd.). The continuous titration was carried out by using 25 mM NaOH solution until the pH reached 7.0, and the result was expressed as the amount of gastric acid secreted for every 10 minutes (μEq /10 min.). Pentagastrin was intravenously administered at a rate of 15 μg/Kg/hr.
The secretion of gastric acid increased upon administration of pentagastrin, reaching the maximum level after 60 minutes and stably maintaining this level after that.

In the next assay the target is T2, CCK-B receptor (Rattus norvegicus, UniProt P30553).
T2 construct: the whole brain was immediately excised from each of the rats and homogenized; from tissue; host or cells: SD rat whole brain membranes
T2 sequence (P30553 1-452): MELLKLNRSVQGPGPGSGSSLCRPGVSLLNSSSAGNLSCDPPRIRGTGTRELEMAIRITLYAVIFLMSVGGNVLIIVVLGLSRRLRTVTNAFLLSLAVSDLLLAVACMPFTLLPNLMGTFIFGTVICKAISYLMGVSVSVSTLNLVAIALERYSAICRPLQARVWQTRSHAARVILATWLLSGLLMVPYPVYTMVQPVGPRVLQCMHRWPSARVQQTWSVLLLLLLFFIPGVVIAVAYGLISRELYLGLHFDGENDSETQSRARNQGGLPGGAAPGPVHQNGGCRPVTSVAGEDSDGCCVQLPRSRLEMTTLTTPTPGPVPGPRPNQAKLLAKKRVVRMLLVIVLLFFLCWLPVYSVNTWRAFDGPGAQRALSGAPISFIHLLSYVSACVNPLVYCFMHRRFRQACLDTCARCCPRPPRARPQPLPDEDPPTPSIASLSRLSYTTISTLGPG
The experiment in a line: Measurement of binding affinity for CCK-B receptors ([125I]BH-CCK-8, rat brain membranes). On the set-up: species or system SD rat.

[2] abbreviates: table 1, rat brain membranes, [125I]BH-CCK-8, 25 °C, 120 min, read-out: IC50 (CCK-B receptor binding).
[3] abbreviates: table 2, rat brain membranes, [125I]BH-CCK-8, read-out: Receptor binding affinity IC50, CCK-B.

As for `Cc1cccc(NC(=O)NC2N=C(c3nccn3C)c3ccccc3N(CC(=O)C(C)(C)C)C2=O)c1` (racemic) [Example 1, N-((3RS)-1-tert-Butylcarbonylmethyl-2,3-dihydro-2-oxo-5-(2-(1-methyl)imidazolyl)-1H-1,4-benzodiazepin-3-yl)-N'-(3-methylphenyl)urea], the “A/B Ratio: IC50 (CCK-A)/IC50 (CCK-B)” value at CCK-A receptor was 187. Also, the “% Inhibition (maximum inhibition of gastric acid secretion)” value (“% Inhibition” below) in assay [1] amounted to 48.9%.

On CCK-B receptor, `CN(C)c1cccc(NC(=O)NC2N=C(c3nccn3C)c3ccccc3N(CC(=O)C(C)(C)C)C2=O)c1` (racemic) [Example 2, N-((3RS)-1-tert-Butylcarbonylmethyl-2,3-dihydro-2-oxo-5-(2-(1-methyl)imidazolyl)-1H-1,4-benzodiazepin-3-yl)-N'-(3-dimethylaminophenyl)urea] yielded an IC50 of 2.08 nM. In addition, on CCK-A receptor, the “A/B Ratio: IC50 (CCK-A)/IC50 (CCK-B)” value is reported as 238 and the IC50 worked out at 495 nM. For the same compound, in assay [1], the “% Inhibition” value is 47.4%.

Compound `Cc1cccc(NC(=O)NC2N=C(c3nccs3)c3ccccc3N(CC(=O)C(C)(C)C)C2=O)c1` (racemic) [Example 3, N-((3RS)-1-tert-Butylcarbonylmethyl-2,3-dihydro-2-oxo-5-(2-thiazolyl)-1H-1,4-benzodiazepin-3-yl)-N'-(3-methylphenyl)urea] came in with an IC50 on CCK-B receptor of 0.8 nM. Besides, on CCK-A receptor, the “A/B Ratio: IC50 (CCK-A)/IC50 (CCK-B)” value is given as 540 and the IC50 was found to be 433 nM. In addition, the “% Inhibition” value in assay [1] stood at 57.6%.

The compound `CN(C)c1cccc(NC(=O)NC2N=C(c3nccs3)c3ccccc3N(CC(=O)C(C)(C)C)C2=O)c1` (racemic) [Example 4, N-((3RS)-1-tert-Butylcarbonylmethyl-2,3-dihydro-2-oxo-5-(2-thiazolyl)-1H-1,4-benzodiazepin-3-yl)-N'-(3-dimethylaminophenyl)urea] gave an IC50 on CCK-B receptor of 0.63 nM. At CCK-A receptor, the “A/B Ratio: IC50 (CCK-A)/IC50 (CCK-B)” value turned out to be 700 and the half-inhibitory concentration (IC50) amounted to 441 nM. The “% Inhibition” value in assay [1] is 55.2%.

Regarding `Cc1cccc(NC(=O)NC2N=C(c3cnccn3)c3ccccc3N(CC(=O)C(C)(C)C)C2=O)c1` (racemic) [Example 5, N-((3RS)-1-tert-Butylcarbonylmethyl-2,3-dihydro-2-oxo-5-(2-pyrazinyl)-1H-1,4-benzodiazepin-3-yl)-N'-(3-methylphenyl)urea], in assay [1], the “% Inhibition” value is listed as 55.4%.

As to `CN(C)c1cccc(NC(=O)NC2N=C(c3cnccn3)c3ccccc3N(CC(=O)C(C)(C)C)C2=O)c1` (racemic) [Example 6, N-((3RS)-1-tert-Butylcarbonylmethyl-2,3-dihydro-2-oxo-5-(2-pyrazinyl)-1H-1,4-benzodiazepin-3-yl)-N'-(3-dimethylaminophenyl)urea], on CCK-B receptor, the IC50 worked out at 0.22 nM. Moreover, the “% Inhibition” value in assay [1] was 61.9%.

As to `CN(C)c1cccc(NC(=O)NC2N=C(c3ncc[nH]3)c3ccccc3N(CC(=O)C(C)(C)C)C2=O)c1` (racemic) [Example 8B, N-((3RS)-1-tert-Butylcarbonylmethyl-2,3-dihydro-5-(2-imidazolyl)-2-oxo-1H-1,4-benzodiazepin-3-yl)-N'-(3-dimethylaminophenyl)urea], the IC50 on CCK-B receptor came to 55.3 nM.

On to `CNc1cccc(NC(=O)NC2N=C(c3ccccn3)c3ccccc3N(CC(=O)C(C)(C)C)C2=O)c1` (racemic) [Example 26, N-((3RS)-1-tert-Butylcarbonylmethyl-2,3-dihydro-2-oxo-5-(2-pyridyl)-1H-1,4-benzodiazepin-3-yl)-N'-(3-(methylamino)phenyl)urea], for which, on CCK-B receptor (setting [2]), the IC50 came out at 1.4 nM.

For the compound `CN(C)c1cccc(NC(=O)N[C@@H]2N=C(c3ccccn3)c3ccccc3N(CC(=O)C(C)(C)C)C2=O)c1` [Example 22, N-((3R)-1-tert-Butylcarbonylmethyl-2,3-dihydro-2-oxo-5-(2-pyridyl)-1H-1,4-benzodiazepin-3-yl)-N'-((3-dimethylamino)phenyl)urea], the IC50 stood at 0.2 nM on CCK-B receptor (setting [2]), 0.2 nM on CCK-B receptor (setting [3]) and 113 nM on CCK-A receptor. The “A/B Ratio: IC50 (CCK-A)/IC50 (CCK-B)” value on CCK-A receptor came out at 565. In assay [1], the ED50 was determined as 0.011 µmol/kg.

On to `Cc1cccc(NC(=O)N[C@@H]2N=C(c3ccccn3)c3ccccc3N(CC(=O)C(C)(C)C)C2=O)c1` [Example 42], for which, on CCK-B receptor (setting [2]), the IC50 amounted to 0.44 nM. Moreover, the ED50 in assay [1] came to 0.016 µmol/kg.

As for `CN(C(=O)OC(C)(C)C)c1cccc(C(=O)O)c1` [Example 50, 3-(N-tert-Butoxylcarbonyl-N-methylamino)benzoic acid], the IC50 at CCK-B receptor (setting [2]) amounted to 0.88 nM.

Take `CNc1cccc(NC(=O)N[C@@H]2N=C(c3ccccn3)c3ccccc3N(CC(=O)C(C)(C)C)C2=O)c1` [Example 52, N(-((3R)-1-tert-Butylcarbonylmethyl-2,3-dihydro-2-oxo-5-(2-pyridyl)-1H-1,4-benzodiazepin-3-yl)-N'-3-methylaminophenyl)urea]: at CCK-B receptor (setting [3]), the IC50 is 0.1 nM. Besides, at CCK-A receptor, the “A/B Ratio: IC50 (CCK-A)/IC50 (CCK-B)” value came to 5020 and the IC50 came out at 502 nM.

The IC50 is the midpoint of a concentration-inhibition curve. Broadly, the ED50 is the midpoint of the dose-response relation.
